In PMC10609854 (Pharmaceuticals, 2023):
Where a name gives a salt, the structure may show the parent alone.

Key:
CQ-induced pruritus = assay: chloroquine (CQ)-induced pruritus; assay type: in vivo, mice; settings: mice, 10 mg/kg i.p.; 30 min observation
Procedure: (§1) The area (around 2 cm^2) of the nape of mice was shaved at least 2 days prior to experiments. On the day of the experiment, each mouse was individually placed in plastic chambers (15 × 15 × 30 cm). After the 30 min period of habituation, the mice received an intradermal (i.d.) injection of histamine dihydrochloride (10 µmol/site), chloroquine (CQ, 200 µg/site), or SLIGRL-NH2 (40 nmol/site), which were dissolved in physiological saline and administrated at the constant volume of 20 μL. Immediately following the injection, scratching (series of movements considered as a single scratching bout usually consisted of three single scratches) of the injected site by the hind paw was counted for 60 min, 30 min, or 45 min after histamine, CQ, and SLIGRL-NH2 injection, respectively.

[1] = system: histamine-induced pruritus; assay: histamine-induced pruritus; assay type: in vivo; settings: mice; for influence on the antipruritic activity of E153, histamine-induced pruritus: 15 mg/kg given 10 min before E153 (5 mg/kg i.p.)
Procedure: as §1

SLIGRL-induced pruritus = assay: SLIGRL-induced pruritus; assay type: in vivo; settings: mice, 10 mg/kg i.p.; 45 min observation
Procedure: as §1

formalin-induced pain = assay: formalin test; assay type: in vivo, mice; settings: mice; for duration of the nociceptive response, acute phase of the formalin test: i.p. 30 min before test, 0–5 min after formalin; for influence on the analgesic effect of E153, late phase of the formalin test: 15 mg/kg given 10 min before E153 (15 mg/kg i.p.); for duration of the nociceptive response, late phase of the formalin test: single administration alone, 15 mg/kg
Procedure: The mice received an intraperitoneal (i.p.) injection of either the test compound or a control solution. After 30 min, a 20 μL injection of a 2.5% formalin solution was administered into the right hind paw. Right after the formalin injection, the animals were individually placed into glass containers and observed for the following 30 min. During specific time intervals (0–5 min, referred to as Phase I, and 15–30 min, referred to as Phase II, post-formalin injection), the time spent by the animals licking or biting the injected paw was recorded..

Structure (SMILES)	duration of the nociceptive response, acute phase of the formalin test (formalin-induced pain)	influence on the antipruritic activity of E153, histamine-induced pruritus [1]	scratching behavior, histamine-induced pruritus ([1]; administered alone, 15 mg/kg)	influence on the analgesic effect of E153, late phase of the formalin test (formalin-induced pain)	duration of the nociceptive response, late phase of the formalin test (formalin-induced pain)	also measured
COc1ccc(CN(CCN(C)C)c2ccccn2)cc1 [pyrilamine, reference compound]	–	–	–	–	–	number of scratch bouts, CQ-induced pruritus (CQ-induced pruritus): not effective; scratching behavior, histamine-induced pruritus ([1]; i.p. 30 min before i.d. histamine): significantly reduced scratching behavior; scratch bouts, SLIGRL-induced pruritus (SLIGRL-induced pruritus): not effective
c1cc(OCCCN2CCCCC2)ccc1CN1CCCCC1 [JNJ 5207852, 1-[3-[4-(1-piperidinylmethyl)phenoxy]propyl]piperidine hydrochloride]	lack of activity	–	–	–	–	activity in the late phase of the formalin test (formalin-induced pain; 10 mg/kg i.p.): inactive; paw licking and biting behavior, late phase of the formalin test (formalin-induced pain; 15 and 30 mg/kg i.p.): significantly attenuated; nociceptive response, late phase of the formalin test, joint administration (formalin-induced pain; JNJ 5207852 15 mg/kg + S1RA 15 mg/kg i.p., compared to saline): significantly stronger decrease in nociceptive response
Cl.O=C(OCCN1CCOCC1)C1(c2ccccc2)CCCCC1 [PRE-084, 2-[4-morpholinethyl]1-phenylcyclohexanecarboxylate hydrochloride]	–	significant decrease in E153 activity	did not alter animal scratching behavior	antagonized the effects of test compound	did not change	–
C[C@@H](N)Cc1c[nH]cn1 [RAMH, (R)-(-)-α-methylhistamine]	–	had no effect	did not alter animal scratching behavior	antagonized the effects of test compound	did not change	–
Cc1cc(OCCN2CCOCC2)nn1-c1ccc2ccccc2c1.Cl [Compound S1RA, 4-[2-[[5-methyl-1-(2-naphthalenyl)1H-pyraol-3-yl]oxy]ethyl]-morpholine hydro-chloride]	lack of activity	–	–	–	–	activity in the late phase of the formalin test (formalin-induced pain; 15 mg/kg i.p.): inactive; paw licking and biting behavior, late phase of the formalin test (formalin-induced pain; 30 mg/kg i.p.): showed activity; nociceptive response, late phase of the formalin test, joint administration (formalin-induced pain; JNJ 5207852 10 mg/kg + S1RA 30 mg/kg i.p.): did not affect the activity of the compounds
